According to US20070191437A1, “Continuous Dosing Regimen” (priority 2003, published 2007):
Marks after values point to notes of the source that are not given here.

Experiments:
[1] = biological target: biotinylated bovine brain tubulin; details: competition of [3H]colchicine
[2] = tested on: M5076 murine reticulum cell sarcoma; details: for response of the model to the drug / ILS: comparator drugs, dose not given
[3] = tested on: HCT-15 human colon carcinoma; experiment: HCT-15 human colon carcinoma xenografts; assay type: in vivo; details: for efficacy in inhibiting tumor growth: MDR positive line
Text: HCT-15 is a human colon carcinoma derived cell line. It is MDR positive, and expresses both mutant p53 and oncogenic K-ras. The HCT-15 cell line has one of the highest levels of mdr-1/P-glycoprotein expression of cells from the NCI tumor cell line panel.

[4] = tested on: NCI-H460 human non-small cell lung carcinoma; experiment: NCI-H460 xenograft model; assay type: in vivo; details: for activity: comparators
Text: NCI-H460 is a human non-small cell lung carcinoma derived cell line. It is MDR negative, has wild type p53, and contains an oncogenic K-ras mutation.

MDA-MB-468 breast = MDA-MB-468 breast subcutaneous flank xenografts in female nude mice, HPM with docetaxel (Example 3); assay type: in vivo; details: 33.3 mg/kg/day i.v., q.d × 1
Experimental: Tumor cells derived from serially passaged tumor fragments were inoculated s.c. in female nude mice on day 0. On day 10, mice bearing established tumors were size matched at about 231 mm^3 and divided into the following groups:
1. HPM at 100 mg/kg/day (p.o., q.d., 5 days on, 5 days off ×2)
2. HPM at 75 mg/kg/day (p.o., q.d., 5 days on, 5 days off ×2)
3. HPM at 0 mg/kg/day (p.o., q.d., 5 days on, 5 days off ×2)
4. Docetaxel at 33.3 mg/kg/day (i.v., q.d. ×1)
5. Docetaxel at 0 mg/kg/day (i.v., q.d. ×1)
6. Combination therapy: HPM at 100 mg/kg/day and docetaxel at 33.3 mg/kg/day
7. Combination therapy: HPM at 75 mg/kg/day and docetaxel at 33.3 mg/kg/day

Calu-6 cells = experiment: Calu-6 flank xenograft model in male scid mice, HPM with docetaxel (Example 1); assay type: in vivo; details: docetaxel q.10d. at 20 mg/kg/day
Experimental: (§1) Male scid mice (Charles River Labs.) were injected subcutaneously with 0.2 mL of 2×10^6 Calu-6 cells (1:1 with matrigel) on study day 0. The cellular implantation site was the right flank, and all mice were ear tagged. On day 13, tumors were size matched to 247 mm^3 and animals were placed into the therapy groups outlined in the study design below. All treatments were initiated on day 13 post tumor inoculation. The tumors were measured with calipers 2 times per week after tumors were palpable. Tumor volumes were calculated according to the formula V=L×W^2/2 (V: volume, mm^3; L: length, mm. W: width, mm). Mouse group weights were taken 2 times per week to monitor weight loss from toxicity or excessive tumor burden. The mice were humanely euthanized when the tumor volumes reached a predetermined size. The study design was as follows:
(§2) 1. HPM vehicle and docetaxel at 20 mg/kg/day.
(§3) 2. HPM vehicle and docetaxel at 10 mg/kg/day.
(§4) 3. HPM at 100 mg/kg/day and docetaxel vehicle.
(§5) 4. HPM at 75 mg/kg/day and docetaxel vehicle.
(§6) 5. HPM at 100 mg/kg/day and docetaxel at 20 mg/kg/day.
(§7) 6. HPM at 100 mg/kg/day and docetaxel at 10 mg/kg/day.
(§8) 7. HPM at 75 mg/kg/day and docetaxel at 20 mg/kg/day.
(§9) 8. HPM at 75 mg/kg/day and docetaxel at 10 mg/kg/day.
(§10) 9. HPM vehicle and docetaxel vehicle.
(§11) HPM was dosed orally on a (q.d.×5, 5 days off)×2 schedule. The drug was formulated in 1% HCl, 4% ethanol, and 95% D5W. Docetaxel was dosed intravenously, (q.10d.)×2 and formulated in saline.

[5] = as above; assay type: in vivo; details: male, scid, mouse, in vivo
Experimental: as §1, §2, §3, §4, §5, §6, §7, §8, §9, §10, §11

[6] = Clinical single dose and 5-day repeated dose study in 57 cancer subjects; assay type: in vivo, human
Experimental: (2-((4-hydroxyphenyl)amino)pyrid-3-yl)-4-methoxybenzenesulfonamide was evaluated in 57 cancer subjects in single dose (16 subjects) and 5-day repeated dose regimens (41 subjects). The doses administered in the single dose segment were 80 to 480 mg/m^2/day. In the 5-day repeated dose regimen (2-((4-hydroxyphenyl)amino)pyrid-3-yl)-4-methoxybenzenesulfonamide was given at 30 to 240 mg/m^2/day for a single cycle. […] Adverse drug reactions from the single dose and 5-day repeated dose segments included nausea and vomiting, diarrhea, epigastric pain, ileus and evidence of peripheral neuropathy. For the single dose segment, the dose limiting toxicity (DLT) was Grade 3 peripheral neuropathy in 1 of 5 subjects at 480 mg/m^2/day. In the 5-day repeated dose regimen the dose limiting toxicities were Grade 3 peripheral neuropathy in 1 of 4 subjects at 210 mg/m^2/day and Grade 4 intestinal paralysis in 1 of 4 subjects at 210 mg/m^2/day and in 1 of 6 subjects at 240 mg/m^2/day.

MiaPaCa2 pancreatic = MiaPaCa2 pancreatic xenograft model, combination with gemcitabine; assay type: in vivo; details: in combination with gemcitabine
[7] = Clinical safety review, adverse events by grade; assay type: in vivo, human
Experimental: For 134 patients tested, at doses of about 200 mg QD, 250 mg QD, 300 mg QD, 125 mg BID, 150 mg BID, and 175 mg BID, 16 reported anemia, of which 11 were Grades I or II and 5 were Grades (III or IV); 1 reported Grade I or II alpoecia; 8 reported Grade I or II neutropenia; and none reported fluid retention, for which Grade I is defined as mild, Grade II is defined as moderate, Grade III is defined as severe, Grade IV is defined as life threatening.

[8] = tested on: MDA-MB-468 breast carcinoma; experiment: Staged human tumor xenograft, MDA-MB-468; assay type: in vivo
Text: (§12) (2-((hydroxyphenyl)amino)pyrid-3-yl)-4-methoxybenzenesulfonamide inhibited the growth of a variety of human tumor xenografts that were allowed to grow into established tumors prior to the initiation of treatment. As summarized below, activity was seen against established tumors derived from colon, breast and lung carcinomas. (2-((4-hydroxyphenyl)amino)pyrid-3-yl)-4-methoxybenzenesulfonamide was also active against a human pancreatic tumor xenograft grown in the orthotopic site.

HT-29 colon carcinoma = experiment: Staged human tumor xenograft, HT-29; assay type: in vivo; details: oral 75 mg/kg/d QD, d 10-14, 20-24
Text: as §12

Calu-6 lung carcinoma = experiment: Staged human tumor xenograft, Calu-6; assay type: in vivo; details: oral 75 mg/kg/d QD, d 10-14, 20-24
Text: as §12

[9] = Clinical 21-day QD regimen, MTD determination; assay type: in vivo
[10] = Clinical 7-day QD regimen, MTD determination; assay type: in vivo
Experimental: In the 7-day QD regimen, the 250 mg QD dose has been determined to be the MTD, as dose limiting toxicities of peripheral neuropathy/ileus were reported in 2 of 6 subjects at the 300 mg QD dose.

C26 colon tumors = C26 colon tumors grown in the flank of CDF-1 mice; assay type: in vivo
Calu-6 lung = Calu-6 lung subcutaneous flank xenografts in male nude mice, HPM with cisplatin (Example 6); assay type: in vivo; details: 10 mg/kg/day i.p., q.d × 1
Experimental: In a non-small cell lung cancer study, tumor cells were inoculated s.c. into male nude mice on day 0. On day 10, mice bearing established tumors were size matched at about 233 mm^3 and placed into the following groups: • 1. […]., 5 days on, 5 days off ×2) • 2. PM-75 mg/kg/day (p.o., q.d., 5 days on, 5 days off×2) • 3. PM-0 mg/kg/day (p.o., q.d., 5 days on, 5 days off ×2) • 4. […] Cisplatin 0 mg/kg/day (ip, qd ×1) • 6. […] Combination Therapy Vehicles

[11] = 5-day repeated dose regimen, 210 mg/m^2/day
[12] = 134 patients, 200-300 mg QD, 125-175 mg BID

CC[C@]1(O)C[C@@H]2CN(CCc3c([nH]c4ccccc34)[C@@](C(=O)OC)(c3cc4c(cc3OC)N(C)[C@H]3[C@@](O)(C(=O)OC)[C@H](OC(C)=O)[C@]5(CC)C=CCN6CC[C@]43[C@@H]65)C2)C1 [vinblastine]
Ki [1]: > 100 µM

O=P1(N(CCCl)CCCl)NCCCO1 (centres unmarked) [cyclophosphamide]
response of the model to the drug [2]: sensitive

CC[C@]1(O)C[C@H]2CN(CCc3c([nH]c4ccccc34)[C@@](C(=O)OC)(c3cc4c(cc3OC)N(C=O)[C@H]3[C@@](O)(C(=O)OC)[C@H](OC(C)=O)[C@]5(CC)C=CCN6CC[C@]43[C@@H]65)C2)C1 [vincristine, reference compound]
efficacy in inhibiting tumor growth [3]: not efficacious
activity [4]: lacked activity
ILS [2]: 17%

CC(=O)O[C@@]12CO[C@@H]1C[C@H](O)[C@@]1(C)C(=O)[C@H](O)C3=C(C)[C@@H](OC(=O)[C@H](O)[C@@H](NC(=O)OC(C)(C)C)c4ccccc4)C[C@@](O)([C@@H](OC(=O)c4ccccc4)[C@H]21)C3(C)C [docetaxel]
% TGD^a: median % TGD increase compared to vehicle treated controls in time to 1 cc (MDA-MB-468 breast): 67*** %
maximum wt loss (Calu-6 cells): 8%
MTD ([5]; intravenous, docetaxel on a q.10d.×2 schedule, mice): 25 mg/kg/day

COc1cccc2c1C(=O)c1c(O)c3c(c(O)c1C2=O)C[C@@](O)(C(=O)CO)C[C@@H]3O[C@H]1C[C@H](N)[C@H](O)[C@H](C)O1 [doxorubicin]
ILS [2]: 13%

COc1ccc(S(=O)(=O)Nc2cccnc2Nc2ccc(O)cc2)cc1 [ABT-751, N-(2-((4-Hydroxyphenyl)amino)pyridin-3-yl)-4-methoxybenzenesulfonamide]
% ILS ([3]; 50 mg/kg/d PO, QD, days 1-8): 34%
T/C (no. trials) ([3]; 50 mg/kg/d PO, QD, days 1-8): 50(2)
efficacy in inhibiting tumor growth [3]: effective in inhibiting tumor growth
dose limiting toxicity: Grade 3 peripheral neuropathy, subjects [6, 11]: 1 of 4
dose limiting toxicity: Grade 4 intestinal paralysis, subjects [6, 11]: 1 of 4
dose limiting toxicity: Grade 4 intestinal paralysis, subjects ([6]; 5-day repeated dose regimen, 240 mg/m^2/day): 1 of 6
AUC versus dose ([6]; range of 30 to 480 mg/m^2/day): increased proportionally with dose
accumulation ([6]; range of 30 to 480 mg/m^2/day): no apparent accumulation
dose limiting toxicity: Grade 3 peripheral neuropathy, subjects ([6]; single dose segment, 480 mg/m^2/day): 1 of 5
antitumor activity compared to single agent alone (MiaPaCa2 pancreatic): increase in antitumor activity
patients who reported Grade I or II alopecia [7, 12]: 1
patients who reported Grade I or II neutropenia [7, 12]: 8
patients who reported anemia [7, 12]: 16
patients who reported fluid retention [7, 12]: none
patients with anemia of Grades I or II [7, 12]: 11
patients with anemia of Grades III or IV [7, 12]: 5
myelosuppression, renal or hepatic toxicity ([7]; review of the safety data of the three studies): no significant myelosuppression, renal or hepatic toxicity
% T/C ([8]; oral 50 mg/kg/d QD, d 1-21): 46%
% T/C ([8]; oral 75 mg/kg/d QD, d 10-14, 20-24): 33%
% T/C ([8]; oral 100 mg/kg/d QD, d 10-14, 20-24): 25%
% ILS (HT-29 colon carcinoma): 50%
MTD ([5]; po, HPM orally (q.d.×5, 5 days off)×2, mice): 100 mg/kg/day
% ILS (Calu-6 lung carcinoma): 58%
MTD ([9]; QD regimen given for 21 days): 200 mg
dose limiting toxicities of fatigue, anorexia and suspect small bowel obstruction, subjects ([9]; human, in vivo, 21 days): 2/3
T/C, mean tumor volume at day 13 ([4]; day 13 vs vehicle control): 58%
ILS (delay in tumor growth) ([4]; in vivo): 32%
MTD ([10]; 7-day QD regimen): 250 mg
dose limiting toxicities of peripheral neuropathy/ileus, subjects ([10]; human, in vivo, 7 days): 2 of 6
antitumor activity (C26 colon tumors; 5-day schedule): only marginally active
antitumor activity (C26 colon tumors; extended dosing, equivalent to BCNU at the MTD): significant antitumor response
ILS (percent increase in life span) ([2]; 150 mg/kg orally once a day for 5 days): 42%
approximate MTD ([2]; orally once a day for 5 days): ~150 mg/kg

N.N.[Cl][Pt][Cl] [Cisplatin, cisplatin]
% TGD^a: median % TGD increase compared to vehicle treated controls in time to 1 cc (Calu-6 lung): 71*** %

CC(=O)O[C@H]1C(=O)[C@@]2(C)[C@H]([C@H](OC(=O)c3ccccc3)[C@]3(O)C[C@H](OC(=O)[C@H](O)[C@@H](NC(=O)c4ccccc4)c4ccccc4)C(C)=C1C3(C)C)[C@]1(OC(C)=O)CO[C@@H]1C[C@@H]2O [paclitaxel, reference compound]
efficacy in inhibiting tumor growth [3]: not efficacious
activity [4]: lacked activity
antitumor activity (C26 colon tumors; comparator, dose not given): not efficacious
response of the model to the drug [2]: resistant
